Results from US9133207B2, “Tetrandrine derivatives with substituted 5-carbon, preparation method and use thereof” (Hangzhou Bensheng Pharmaceutical Co., Ltd., priority 2011, dated 2015).
Values after ≈ are worked out from the molar mass of the structure shown.

What was measured:
[1] = test system: K562/adr (drug-resistant, chronic myeloid leukemia, CML); assay: Leukemia cell growth inhibition, MTT, 72 h (Example 5); format: cell-based, human; details: Homo sapiens, K562/Adr; 72 h, MTT
How it was run: (§1)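 Growth inhibition by tetrandrine derivatives, dosed at several concentrations, was assessed via MTT after a 72-hour culture at 37° C.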

[2] = test system: H9 (acute lymphoblastic leukemia, ALL); assay: as above; format: cell-based, human; details: Homo sapiens; 72 h, MTT
How it was run: as §1

[3] = test system: Kasumi-1 (acute myeloid leukemia M2 type, AML-M2); assay: as above; format: cell-based, human; details: Homo sapiens, Kasumi 1
How it was run: as §1

[4] = test system: NB4 (acute promyelocytic leukemia, AML); assay: as above; format: cell-based, human; details: Homo sapiens; 72 h, MTT
How it was run: as §1

[5] = test system: Jurkat (acute lymphoblastic leukemia, ALL); assay: as above; format: cell-based, human; details: for IC50 / IC90: Homo sapiens, Jurkat, 72 h, MTT
How it was run: as §1

[6] = test system: RPMI8226 (multiple myeloma); assay: Multiple myeloma cell growth inhibition, MTT, 72 h (Example 6); format: cell-based, human; details: Homo sapiens, RPMI-8226; 72 h, MTT, RPMI8226
How it was run: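 RPMI8226 cells (6000 per well) in RPMI 1640 with 10% FBS were exposed to a range of tetrandrine derivative concentrations for 72 h at 37 °C under 5% CO2. Viable cell concentration was then measured by MTT.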

[7] = test system: U87 MG (malignant glioma cell); assay: Solid tumor cell growth inhibition, MTT, 72 h (Example 7); format: cell-based; details: Homo sapiens, U-87 MG
How it was run: (§2)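 Cells (4000/well) were seeded in DMEM high glucose with 10% FBS and grown 24 h at 37 °C, 5% CO2, then exposed to tetrandrine derivatives at different concentrations for 72 h. Viable cells were measured by MTT, with viability expressed as % of untreated control (100%).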

[8] = test system: Becap37 (human breast cancer cell); assay: as above; format: cell-based; details: Homo sapiens; 72 h, MTT, Becap-37
How it was run: as §2

A549 (human lung cancer) = assay: as above; format: cell-based; details: Homo sapiens; 72 h, MTT, A549
How it was run: as §2

[9] = test system: MGC 803 (human gastric cancer cell); assay: as above; format: cell-based; details: Homo sapiens
How it was run: as §2

[10] = test system: SK-OV-3 (ovarian cancer cell); assay: as above; format: cell-based; details: Homo sapiens
How it was run: as §2

[11] = test system: Hela (human cervical cancer cell); assay: as above; format: cell-based; details: Homo sapiens; 72 h, MTT, Hela
How it was run: as §2

[12] = test system: Huh7 (human liver cancer cell); assay: as above; format: cell-based; details: Homo sapiens; 72 h, MTT, Huh-7
How it was run: as §2

[13] = test system: CNE (nasopharyngeal carcinoma cell); assay: as above; format: cell-based; details: Homo sapiens
How it was run: as §2

[14] = test system: RKO (human colon adenocarcinoma cell); assay: as above; format: cell-based; details: Homo sapiens; 72 h, MTT, RKO
How it was run: as §2

MG63 (osteosarcoma) = assay: as above; format: cell-based, human; details: Homo sapiens; 72 h, MTT, MG-63
How it was run: as §2

[15] = test system: PANC-1 (pancreatic cancer); assay: as above; format: cell-based, human; details: for IC50 / IC90: Homo sapiens, 72 h, MTT, PANC-1
How it was run: as §2

PC-3 (prostate cancer) = assay: as above; format: cell-based, human; details: for IC50 / IC90: Homo sapiens, 72 h, MTT, PC-3
How it was run: as §2

[16] = test system: CaES-17 (esophageal cancer cell); assay: as above; format: cell-based, human; details: Homo sapiens, CaEs17; 72 h, MTT, CAES-17
How it was run: as §2

[17] = test system: Hep-2 (laryngeal carcinoma); assay: as above; format: cell-based, human; details: Homo sapiens; 72 h, MTT, Hep 2
How it was run: as §2

COCC(C)OCc1c2c3c(c(OC)c1OC)Oc1cc4c(cc1OC)CCN(C)[C@H]4Cc1ccc(cc1)Oc1cc(ccc1OC)C[C@@H]3N(C)CC2 (stereo partly drawn) [BS-TE-406]
IC50 [1]: 1.44 µg/mL (≈ 1.99 µM) | IC90 [1]: 5.38 µg/mL (≈ 7.42 µM) | IC50 [2]: 1.38 µg/mL (≈ 1.9 µM) | IC90 [2]: 3.41 µg/mL (≈ 4.7 µM) | IC50 [3]: 1.33 µg/mL (≈ 1.83 µM) | IC90 [3]: 6.67 µg/mL (≈ 9.2 µM) | IC50 [4]: 1.7 µg/mL (≈ 2.35 µM) | IC90 [4]: 5.5 µg/mL (≈ 7.59 µM) | IC50 [5]: 1.57 µg/mL (≈ 2.17 µM) | IC90 [5]: 9.9 µg/mL (≈ 13.7 µM) | IC50 [6]: 0.52 µg/mL (≈ 0.717 µM) | IC90 [6]: 2.81 µg/mL (≈ 3.88 µM) | IC50 [7]: 2.86 µg/mL (≈ 3.95 µM) | IC90 [7]: 6.66 µg/mL (≈ 9.19 µM) | IC50 [8]: 3.5 µg/mL (≈ 4.83 µM) | IC90 [8]: 10.8 µg/mL (≈ 14.9 µM) | IC50 (A549 (human lung cancer)): 8.4 µg/mL (≈ 11.6 µM) | IC90 (A549 (human lung cancer)): > 16 µg/mL | IC50 [9]: 2.87 µg/mL (≈ 3.96 µM) | IC90 [9]: 8 µg/mL (≈ 11 µM) | IC50 [10]: 7.1 µg/mL (≈ 9.79 µM) | IC90 [10]: > 16 µg/mL | IC50 [11]: 1.07 µg/mL (≈ 1.48 µM) | IC90 [11]: 2.89 µg/mL (≈ 3.99 µM) | IC50 [12]: 2.31 µg/mL (≈ 3.19 µM) | IC90 [12]: 3.43 µg/mL (≈ 4.73 µM) | IC50 [13]: 1.6 µg/mL (≈ 2.21 µM) | IC90 [13]: 3.49 µg/mL (≈ 4.81 µM) | IC50 [14]: 0.89 µg/mL (≈ 1.23 µM) | IC90 [14]: 1.99 µg/mL (≈ 2.75 µM) | IC50 (MG63 (osteosarcoma)): 2.49 µg/mL (≈ 3.43 µM) | IC90 (MG63 (osteosarcoma)): 6.36 µg/mL (≈ 8.77 µM) | IC50 [15]: 2.73 µg/mL (≈ 3.77 µM) | IC90 [15]: 16 µg/mL (≈ 22.1 µM) | IC50 (PC-3 (prostate cancer)): 3.32 µg/mL (≈ 4.58 µM) | IC90 (PC-3 (prostate cancer)): 6.95 µg/mL (≈ 9.59 µM) | IC50 [16]: 3.94 µg/mL (≈ 5.44 µM) | IC90 [16]: 16.4 µg/mL (≈ 22.7 µM) | IC50 [17]: 2.4 µg/mL (≈ 3.31 µM) | IC90 [17]: 6.87 µg/mL (≈ 9.48 µM)

COc1ccc2cc1Oc1ccc(cc1)C[C@H]1c3cc(c(OC)cc3CCN1C)Oc1c(OC)c(OC)c(CN3CCCCC3)c3c1[C@H](C2)N(C)CC3 [BS-TE-355]
IC50 [1]: 0.44 µg/mL (≈ 0.611 µM) | IC90 [1]: 8.5 µg/mL (≈ 11.8 µM) | IC50 [2]: 0.63 µg/mL (≈ 0.875 µM) | IC90 [2]: 1.96 µg/mL (≈ 2.72 µM) | IC50 [3]: 0.46 µg/mL (≈ 0.639 µM) | IC90 [3]: 2.55 µg/mL (≈ 3.54 µM) | IC50 [4]: 0.4 µg/mL (≈ 0.556 µM) | IC90 [4]: 1.4 µg/mL (≈ 1.94 µM) | IC50 [5]: 0.48 µg/mL (≈ 0.667 µM) | IC90 [5]: 4.52 µg/mL (≈ 6.28 µM) | anti-Jurkat activity increase over tetrandrine ([5]; compared with tetrandrine): ~4 fold | IC50 [6]: 0.04 µg/mL (≈ 0.0556 µM) | IC90 [6]: 3.08 µg/mL (≈ 4.28 µM) | IC50 [7]: 0.37 µg/mL (≈ 0.514 µM) | IC90 [7]: 1.16 µg/mL (≈ 1.61 µM) | IC50 [8]: 0.76 µg/mL (≈ 1.06 µM) | IC90 [8]: 2.69 µg/mL (≈ 3.74 µM) | IC50 (A549 (human lung cancer)): 3.4 µg/mL (≈ 4.72 µM) | IC90 (A549 (human lung cancer)): 14.9 µg/mL (≈ 20.7 µM) | IC50 [9]: 0.92 µg/mL (≈ 1.28 µM) | IC90 [9]: 12 µg/mL (≈ 16.7 µM) | IC50 [10]: 3.5 µg/mL (≈ 4.86 µM) | IC90 [10]: > 16 µg/mL | IC50 [11]: 2 µg/mL (≈ 2.78 µM) | IC90 [11]: 6.92 µg/mL (≈ 9.61 µM) | IC50 [12]: 1.28 µg/mL (≈ 1.78 µM) | IC90 [12]: 2.45 µg/mL (≈ 3.4 µM) | IC50 [13]: 1.17 µg/mL (≈ 1.63 µM) | IC90 [13]: 3.64 µg/mL (≈ 5.06 µM) | IC50 [14]: 0.25 µg/mL (≈ 0.347 µM) | IC90 [14]: 1.18 µg/mL (≈ 1.64 µM) | IC50 (MG63 (osteosarcoma)): 0.77 µg/mL (≈ 1.07 µM) | IC90 (MG63 (osteosarcoma)): 1.27 µg/mL (≈ 1.76 µM) | IC50 [15]: 2.27 µg/mL (≈ 3.15 µM) | IC90 [15]: 8.22 µg/mL (≈ 11.4 µM) | IC50 (PC-3 (prostate cancer)): 1.83 µg/mL (≈ 2.54 µM) | IC90 (PC-3 (prostate cancer)): 3.65 µg/mL (≈ 5.07 µM) | IC50 [16]: 1.42 µg/mL (≈ 1.97 µM) | IC90 [16]: 11 µg/mL (≈ 15.3 µM) | IC50 [17]: 3.22 µg/mL (≈ 4.47 µM) | IC90 [17]: 8.45 µg/mL (≈ 11.7 µM)

COc1ccc2cc1Oc1ccc(cc1)C[C@H]1c3cc(c(OC)cc3CCN1C)Oc1c(OC)c(OC)c(CN(C)[C@@H](C)c3ccccc3)c3c1[C@H](C2)N(C)CC3 [BS-TE-317]
IC50 [1]: 0.36 µg/mL (≈ 0.468 µM) | IC90 [1]: 1.58 µg/mL (≈ 2.05 µM) | IC50 [2]: 0.7 µg/mL (≈ 0.909 µM) | IC90 [2]: 1.11 µg/mL (≈ 1.44 µM) | IC50 [3]: 0.88 µg/mL (≈ 1.14 µM) | IC90 [3]: 3.57 µg/mL (≈ 4.64 µM) | IC50 [4]: 0.9 µg/mL (≈ 1.17 µM) | IC90 [4]: 2.1 µg/mL (≈ 2.73 µM) | IC50 [5]: 1.13 µg/mL (≈ 1.47 µM) | IC90 [5]: 4.75 µg/mL (≈ 6.17 µM) | IC50 [6]: 0.06 µg/mL (≈ 0.0779 µM) | IC90 [6]: 1.49 µg/mL (≈ 1.94 µM) | IC50 [7]: 0.5 µg/mL (≈ 0.649 µM) | IC90 [7]: 1.81 µg/mL (≈ 2.35 µM) | IC50 [8]: 1.3 µg/mL (≈ 1.69 µM) | IC90 [8]: 3.2 µg/mL (≈ 4.16 µM) | IC50 (A549 (human lung cancer)): 2.2 µg/mL (≈ 2.86 µM) | IC90 (A549 (human lung cancer)): 5.8 µg/mL (≈ 7.53 µM) | IC50 [9]: 0.73 µg/mL (≈ 0.948 µM) | IC90 [9]: 1 µg/mL (≈ 1.3 µM) | IC50 [10]: 2 µg/mL (≈ 2.6 µM) | IC90 [10]: 8.1 µg/mL (≈ 10.5 µM) | IC50 [11]: 0.94 µg/mL (≈ 1.22 µM) | IC90 [11]: 2.02 µg/mL (≈ 2.62 µM) | IC50 [12]: 1.55 µg/mL (≈ 2.01 µM) | IC90 [12]: 3.72 µg/mL (≈ 4.83 µM) | IC50 [13]: 2.3 µg/mL (≈ 2.99 µM) | IC90 [13]: 3.5 µg/mL (≈ 4.55 µM) | IC50 [14]: 1.15 µg/mL (≈ 1.49 µM) | IC90 [14]: 2.49 µg/mL (≈ 3.23 µM) | IC50 (MG63 (osteosarcoma)): 1.3 µg/mL (≈ 1.69 µM) | IC90 (MG63 (osteosarcoma)): 1.9 µg/mL (≈ 2.47 µM) | IC50 [15]: 1.4 µg/mL (≈ 1.82 µM) | IC90 [15]: 4.18 µg/mL (≈ 5.43 µM) | anti-PANC-1 activity increase over tetrandrine ([15]; compared with tetrandrine): 2 fold | IC50 (PC-3 (prostate cancer)): 1.59 µg/mL (≈ 2.06 µM) | IC90 (PC-3 (prostate cancer)): 2.14 µg/mL (≈ 2.78 µM) | anti-PC-3 activity increase over tetrandrine (PC-3 (prostate cancer); compared with tetrandrine): ~4 fold | IC50 [16]: 1.61 µg/mL (≈ 2.09 µM) | IC90 [16]: 7.4 µg/mL (≈ 9.61 µM) | IC50 [17]: 1.96 µg/mL (≈ 2.55 µM) | IC90 [17]: 4.25 µg/mL (≈ 5.52 µM)
